# Assay results from patent publication US10092517B2, “Gelated microparticle suitable for oral delivery of therapeutic peptides to the lower intestine” (Insucaps Limited, priority 2015, dated 2018).
# Test system: isolated rat colonic mucosae
# Assay: TEER and Papp of [14C]-mannitol in isolated rat colonic mucosae mounted in Ussing chambers
# Format: in vitro ADME
# Description: Ussing Chambers allow the measurement of transport molecules from the apical side of a section of intestinal tissue (rodent) to the basolateral, thereby simulating passage across the gut wall in vivo. […] Their ability to improve intestinal permeability was testing in isolated rat colonic mucosae by measurement of transepithelial electrical resistance (TEER) and permeability of [14C]-mannitol. The permeability of the marker molecule, radioactively labelled sugar ([C14]-Mannitol) was calculated by scintillation counting.
# The transepithelial potential difference (PD, mV) is measured in the open circuit configuration after which the tissue is voltage clamped to zero PD by insertion of the required short circuit current (Isc, μA cm^−2) by means of an automatic voltage clamp (EVC-4000 amplifier, WPI, UK).
# Isc and PD are alternatively monitored by switching to open circuit conditions for 3 s every 30 s using a timer (Pro-4, WPI, UK). Analogue data was digitised with a Powerlab® data acquisition unit and analyzed with Chart® software package (AD instruments, UK).
# Following an equilibration period of 45 min, baseline PD and Isc are measured and TEER (Ω cm^2) is calculated according to Ohm's law.
# Transport of radiolabelled mannitol from the apical chamber to the basolateral chamber was used to measure intestinal permeability.
# Following addition of [^14C]-mannitol (0.2 μCi) to the apical chamber flux is monitored periodically over two hours by sampling the serosal chamber (100 μL) every 20 minutes for two hours, and apically (100 μL) at time zero, replenishing with fresh KH buffer at each sampling point.
# Samples containing [^14C]-mannitol were mixed with scintillation fluid and read in a scintillation analyzer (Packard Tricarb 2900 TR).
# The apparent permeability coefficient (Papp) for mannitol and FD4 is calculated according to the equation; Papp (cm/s)=(dQ/dt) (1/AC0), where dQ/dt is the transport rate (mol/s); A is the surface area of the monolayer (cm^2), and C0 is the initial concentration in the donor compartment (mol/mL).
Molecule,"TEER (10, 25 and 50 mg of TCA added to the encapsulation system)",enhancement of mannitol flux (25 mg Vitamin B12 in encapsulation systems),"TEER (Vitamin B12 in encapsulation systems, over 2 hours)"
"C[C@H](CCC(=O)NCCS(=O)(=O)O)[C@H]1CC[C@H]2[C@@H]3[C@H](O)C[C@@H]4C[C@H](O)CC[C@]4(C)[C@H]3C[C@H](O)[C@]12C [TCA, taurocholic acid]",reduced TEER,–,–
cyanocobalamin [Vitamin B12],–,11.5 fold,significantly reduced TEER
